These results are taken from US6896893B2, “Needle-less parenteral introduction device” (Societe de Conseils de Recherches et d'Applications …, priority 1994, dated 2005).

A short description of series [1]: insulin unit content per mg. On the procedure: (§1) A test was conducted with Insulin Human Recombinant (IHR) and Insulin Bovine Pancreas (IBP). […] IHR and IBP represent about 26 Insulin Units (IU) per mg.
Series [2] is classed as physicochemical. On the procedure: as §1
(§2) A synthetic anti-PAF, 4,7,8,10-tetrahydro-1-methyl-6-(2-chlorphenyl)-9-(4-methoxyphenylthiocarbamoyl)-pyrido-[4′,3′-4,5] thieno [3,2-f]-1,2,4-triazolo [4,5-a] 1,4-diazepine, and a natural anti-PAF, ginkgolide B, were compared to conventional administration. The synthetic anti-PAF cannot conventionally be used parenterally because of its insolubility.

A further series has as its system PAF. Put plainly: anti-PAF pharmacological effect, solid form vs conventional administration. It counts as in vivo.
Description: as §2

Series [3] in a line: pharmacokinetic profiles of injected tablets vs conventional solutions. It counts as in vivo. Particulars: tablets with gelatin and PVP 5-10%. The procedure:
A formulation of a somatostatin analogue, D-Nal-cyclo [Cys-Tyr-D-Trp-Lys-Val-Cys]-Thr-NH2 was made into injectable tablets by associating the dry material with gelatin and polyvinylpyrrolidone (PVP, 5-10%). The tablets were injected and compared to conventional solutions in terms of pharmacokinetic profiles.

Take Insulin Human Recombinant [IHR]: in series [1], the “Insulin Units (IU) per mg” value is reported as “about 26 IU per mg”. The water solubility result in series [2] was “water soluble”.

On to `COc1ccc(NC(=S)N2CCc3c(sc4c3C(c3ccccc3Cl)=NCc3nnc(C)n3-4)C2)cc1` [synthetic anti-PAF, 4,7,8,10-tetrahydro-1-methyl-6-(2-chlorphenyl)-9-(4-methoxyphenylthiocarbamoyl)-pyrido-[4′,3′-4,5] thieno [3,2-f]-1,2,4-triazolo [4,5-a] 1,4-diazepine], for which the water solubility result in series [2] was “insolubility”. For the same compound, in the series with PAF (solid form), the “correlation between pharmacological effect and blood concentration” value is “very good correlation”.

With “D-Nal-cyclo [Cys-Tyr-D-Trp-Lys-Val-Cys]-Thr-NH2”, the “pharmacokinetic profile / pharmacological results, injected tablets vs conventional solutions” value in series [3] was “substantially the same pharmacological results”.

Take `CC1C(=O)OC2C(O)C34C5CC(C(C)(C)C)C36C(OC(=O)C6O)OC4(C(=O)O5)C12O` (centres unmarked) [ginkgolide B]: in series [2], the water solubility result was “slightly soluble”. Further, the “effect after initial injection, solid vs solution” value with PAF (same dose, solution pH 8.75) was “the effect was the same after initial injection”. Further, the duration of effect in the series on PAF (solid dry formulation, same dose) was found to be 24 h; in the series on PAF (solution form (pH 8.75), same dose), 2 h.

For the compound Insulin Bovine Pancreas [IBP], in series [1], the “Insulin Units (IU) per mg” value is “about 26 IU per mg”. Moreover, in series [2], the water solubility result is listed as “water insoluble”.
